Experiments:
Type in all cases: cell-based
hFPR1 [1] = biological target: T1, hFPR1 (Homo sapiens, UniProt P21462); experiment: Akt (Thr308) phosphorylation in hFPR1-FlpIn-CHO cells
T1 construct: expressed in transfected cells
T1 sequence (P21462 1-350): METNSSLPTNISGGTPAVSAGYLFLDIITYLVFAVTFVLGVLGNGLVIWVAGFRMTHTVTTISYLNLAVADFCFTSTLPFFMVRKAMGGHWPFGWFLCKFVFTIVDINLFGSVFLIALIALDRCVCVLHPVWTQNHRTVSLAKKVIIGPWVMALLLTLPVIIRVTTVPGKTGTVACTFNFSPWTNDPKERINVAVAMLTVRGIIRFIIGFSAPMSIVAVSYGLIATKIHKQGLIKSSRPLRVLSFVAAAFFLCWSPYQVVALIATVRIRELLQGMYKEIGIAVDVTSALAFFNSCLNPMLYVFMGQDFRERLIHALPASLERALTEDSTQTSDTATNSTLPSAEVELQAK
Text: (§1) cDNDA construct and generation of stable cell lines: cDNA in pcDNA3.1^+ encoding the human formyl peptide receptors (FPR) subtypes, hFPR1, hFPR2 and hFPR3 was obtained from Invitrogen. The sequences for 3 hFPR receptors were amplified by PCR and cloned into the Gateway entry vector, pDONR202™, using the BP clonase enzyme mix, according to the manufactures' instructions (Invitrogen Inc, Carlsbad, Calif., USA). All hFPR receptors constructs in pDONR201™ were subsequently transfected into the pEF5/FRT/V5/dest vector using the LR clonase enzyme mix (Invitrogen). Receptor constructs (pEF5/FRT/V5/dest) were used to transfect FIp-In CHO cells as described previously (Valant C et al., PNAS, 2014). Cells were selected using 500 μg/mL hydromycin to generate cell lines stably expressing each receptor construct. Cells were maintained and cultured in high glucose DMEM supplemented with 10% FBS, 16 mM HEPES and 500 μg/mL hydromycin at 37° C. under a humidified atmosphere containing 5% CO2.
(§2) In the various assays described below, cells were plated into 96-well transparent cell culture plates at 4×10^4 cells per well, cultured overnight in serum-free media at 37° C. in 5% CO2.
(§3) Measurement of Akt1/2/3 phosphorylation and Akt 1: The same lysate was used for measurement of Akt1/2/3 phosphorylation (Ser473) and Akt1 (Thr308). Cells were lysed in SureFire lysis buffer and transferred to 384-well opaque proxiplates. Under low-light conditions, a 1:10:40 (v:v:v) dilution of AlphaScreen acceptor beads:Surefire activation buffer:Surefire reaction buffer was prepared and the plate was incubated in the dark at RT for 2 h. Then, a 1:20 (v:v) dilution of AlphaScreen donor beads/dilution was prepared and incubated in the dark at RT for another 2 h, before the fluorescence signal was measured by used of a Fusion-α plate reader (PerkinElmer Life and Analytical Sciences) with standard AlphaScreen settings. Receptor mediated phosphorylation of Akt1/2/3 (Ser473) and Akt1 (Thr308) were determined using the AlphaScreen™ […] SureFire™ kit, as per as per manufacturer's instructions. Data were normalized to the maximal response elicited by 10% (v:v) FBS at the same time point.
(§4) Data analysis: All data were analysed using GraphPad Prism 6.0 (GraphPad Software, San Deigo, Calif., USA). Where appropriate, concentration-response curves were fitted to derive the maximal agonist effect (Emax), and the ligand potency estimate (pEC50), where Emax is the maximal possible response of the system (not the agonist), basal is the basal level of response in the absence of agonist, and pEC50 is the negative logarithm of the agonist concentration that gives a response halfway between Emax and basal.
(§5) In the present study, FIp-IN CHO cells and Gateway plasmid were obtained from Invitrogen Inc (Carlsbad, Calif., USA). The sequences for all 3 known human FPRs (hFPR1, hFPR2 and hFPR3) were amplified by PCR and cloned into the Gateway entry vector, pDONR202TM, using the BP clonase enzyme mix, according to the manufacturers' instructions. The hFPR pDONR201TM constructs were subsequently transfected into the pEF5/FRT/V5/dest vector using the LR clonase enzyme mix (Invitrogen). Receptor constructs (pEF5/FRT/V5/dest) were used to transfect FIp-IN CHO cells, as described previously (Valant et al. 2014). Cells were selected using 500 μg/mL hydromycin to generate cell lines stably expressing each human receptor construct. Cells were maintained and cultured in high glucose Dulbecco's modified eagle medium (DMEM) supplemented with 10% fetal bovine serum (FBS, from JRH Biosciences, Lenexa, Kans., USA) and 500 μg/mL hydromycin B (Invitrogen Inc) at 37° C. under a humidified atmosphere containing 5% CO2. Cell were plated into 96-well transparent cell culture plates at 4×10^4 cells per well, cultured overnight in serum-free media at 37° C. in 5% CO2.

hFPR1 [2] = biological target: T1, hFPR1; experiment: Akt1/2/3 (Ser473) phosphorylation in hFPR1-FlpIn-CHO cells
Text: as §1, §2, §3, §4, §5

hFPR1 [3] = biological target: T1, hFPR1; experiment: Inhibition of forskolin-stimulated cAMP accumulation in hFPR1-FlpIn-CHO cells; conditions: for Concentration-response profile on forskolin-stimulated cAMP accumulation at hFPR1: in words
Text: as §1, §2
cAMP Accumulation: CHO-hFPR1, -hFPR2 and -hFPR3 stable transfected cells were plated into 96-well plates and cultured overnight at 37° C. in 5% CO2. Cells were washed with PBS, and cultured overnight. […] Cells were lysed in detection buffer (dH2O, 0.3% Tween 20, 5 mM HEPES, 0.1% BSA). Lysates were transferred to a 384-well plate and mixtures of detection buffer/donor bead-conjugated anti-cAMP antibody and detection buffer: biotinylated cAMP: acceptor bead-conjugated streptavidin were added to the lysates according to the PerkinElmer cAMP Alphascreen protocol. Under low-light conditions, a 1:50 (v:v) dilution of AlphaScreen acceptor beads: stimulation buffer was prepared, 1:150 (v:v) dilution of donor beads and 50 nM biotinylated cAMP in detection buffer was prepared in a 384-well opaque optiplates. Plates were incubated in the dark at room temperature overnight before the fluorescence signal was measured by use of a Fusion-α plate reader (PerkinElmer Life and Analytical Sciences). Data were normalized to the response elicited by 10 μM forskolin at the same time point.
as §4, §5

[4] = Table 8, normalized transduction coefficient, reference agonist Cmpd43
[5] = Table 8, transduction coefficient

For `CC(C)C1C(NC(=O)Nc2ccc(Cl)cc2)C(=O)N(c2ccccc2)N1C` (centres unmarked) [BIDI-002], the Emax (hFPR1 [1]; Table 3, percentage of Akt1/2/3 phosphorylation elicited by 10% FBS, read-out: Emax (%), Akt 1 (Thr308) phosphorylation, hFPR1-Flpln-CHO) was 15 ± 4%, the EC50 (hFPR1 [1]; Table 3, read-out: pEC50, Akt 1 (Thr308) phosphorylation, hFPR1-Flpln-CHO (converted)) was 129 nM and the “ΔLog(τ/KA), Akt 1/2/3 (Thr308) phosphorylation, hFPR1-Flpln-CHO” value (hFPR1 [1]; [4]) was 0.0. For the same compound, the Emax (hFPR1 [1]; Table 8, percent of response elicited by 10% FBS, read-out: Emax, Akt 1/2/3 (Thr308) phosphorylation, hFPR1-Flpln-CHO) was 15 ± 4%, the EC50 (hFPR1 [1]; Table 8, read-out: pEC50, Akt 1/2/3 (Thr308) phosphorylation, hFPR1-Flpln-CHO (converted)) was 126 nM and the “Log(τ/KA), Akt 1/2/3 (Thr308) phosphorylation, hFPR1-Flpln-CHO” value (hFPR1 [1]; [5]) was 6.9 ± 0.3. For the same compound, the Emax (hFPR1 [2]; Table 3, percentage of Akt1/2/3 phosphorylation elicited by 10% FBS, read-out: Emax (%), Akt 1/2/3 (Ser473), hFPR1-Flpln-CHO) was 13 ± 3%, the EC50 (hFPR1 [2]; Table 3, read-out: pEC50, Akt 1/2/3 (Ser473), hFPR1-Flpln-CHO (converted)) was 87.1 nM and the “ΔLog(τ/KA), Akt 1/2/3 (Ser473) phosphorylation, hFPR1-Flpln-CHO” value (hFPR1 [2]; [4]) was 0.0. For the same compound, the Emax (hFPR1 [2]; Table 8, percent of response elicited by 10% FBS, read-out: Emax, Akt 1/2/3 (Ser473) phosphorylation, hFPR1-Flpln-CHO) was 13 ± 3%, the EC50 (hFPR1 [2]; Table 8, read-out: pEC50, Akt 1/2/3 (Ser473) phosphorylation, hFPR1-Flpln-CHO (converted)) was 79.4 nM and the “Log(τ/KA), Akt 1/2/3 (Ser473) phosphorylation, hFPR1-Flpln-CHO” value (hFPR1 [2]; [5]) was 6.9 ± 0.3. The Emax (hFPR1 [3]; Table 4, percentage inhibition of forskolin-stimulated cAMP accumulation, read-out: Emax (%), inhibition to cAMP accumulation, hFPR1-Flpln-CHO) was 27 ± 20%, the EC50 (hFPR1 [3]; Table 4, read-out: pEC50, inhibition to cAMP accumulation, hFPR1-Flpln-CHO (converted)) was 74.1 nM and the “ΔLog(τ/KA), inhibition of cAMP accumulation, hFPR1-Flpln-CHO” value (hFPR1 [3]; [4]) was 0.0. The Emax (hFPR1 [3]; Table 8, percent inhibition of forskolin-induced cAMP accumulation, read-out: Emax, inhibition of cAMP accumulation, hFPR1-Flpln-CHO) was 27 ± 20%, the EC50 (hFPR1 [3]; Table 8, read-out: pEC50, inhibition of cAMP accumulation, hFPR1-Flpln-CHO (converted)) was 79.4 nM and the “Log(τ/KA), inhibition of cAMP accumulation, hFPR1-Flpln-CHO” value (hFPR1 [3]; [5]) was 7.1 ± 0.3. The “Concentration-response profile on forskolin-stimulated cAMP accumulation at hFPR1” value (hFPR1 [3]) was “bell-shaped curves” and the “Concentration-response profile on forskolin-stimulated cAMP accumulation at hFPR1” value (hFPR1 [3]; listed as Cmpd43) was “bi-phasic curve”.

— patent US10328075B2, “Method of treatment and compounds for use therein” (Baker Heart and Diabetes Institute, priority 2015, dated 2019)
